In one test the test system is K. pneumoniae B 77. The test is described as follows: Agar dilution MIC (CLSI), compound alone. The test is classed as cell-based. To be noted: Klebsiella pneumoniae, B77; K. pneumoniae B 77; Table 3; read-out: MIC. As for the experimental part:
(§1) The biological activity of representative compounds according to the invention against various bacterial strains was investigated. In a typical study, overnight grown bacterial cultures were diluted appropriately and inoculated on the agar media containing doubling dilutions of the test compounds. Observations for growth or no growth was performed after 16-20 hours of incubation at 35±2° C. in the ambient air. The overall procedure was performed as per Clinical and Laboratory Standards Institute (CLSI) recommendations, (Clinical and Laboratory Standards Institute (CLSI), Performance Standards for Antimicrobial Susceptibility Testing, 20th Informational Supplement, M 07-A9, Volume 32, No. 2, 2012). Molten Mueller Hinton Agar (BD, USA) containing serial dilutions of each antibacterial agent were poured on to the plates and allowed to solidify. Appropriate suspensions from the freshly grown cultures were prepared in normal saline so that about 10^4 CFU/spot of the organism was delivered on to the drug containing agar plates using automated multipoint inoculator (Mast, UK). The plates were incubated in Biochemical oxygen demand (BOD) incubator at 37° C. for 18 hours and then examined for growth.

The test system of test [1] is Class C beta-lactamase CMY/DHA (E. coli M50). Put plainly: Beta-lactamase enzyme inhibition (Nitrocefin, crude enzyme). The test is classed as biochemical. The note with it: Nitrocefin 100 μM. As to the method: (§2) Absorbance was measured at 485 nm by UV-spectrophotometer. The IC50 was calculated by plotting absorbance against concentration through Sigmoidal dose response curve using Graph Pad software.

Test [2] concerns the target Class A beta-lactamase SHV 18 (K. pneumoniae ATCC 700603) (Klebsiella pneumoniae, UniProt P0AD64). Described as above. The note with it: read-out: Beta-lactamase enzyme inhibition IC50, K. pneumoniae ATCC 700603 (SHV 18), Nitrocefin 100 μM. Format: biochemical. As to the method: as §2
The test system of another test is K. pneumoniae H521. The test is described as follows: Agar dilution MIC of Ceftazidime, alone or with fixed 4 μg/ml compound. To be noted: Ceftazidime alone, Table 5. Format: cell-based. As for the experimental part:
(§3) Agar dilution MIC was carried out in Muller Hinton Agar (Difco, USA) according to the recommendations of CLSI (M07-A9). In short, the plates were poured with a range of doubling increasing concentration of Ceftazidime and fixed 4 μg/ml compound according to invention containing MHA. The freshly overnight grown cultures were diluted in physiological saline to deliver per spot 10^4 CFU. The plates were inoculated with a multipoint inoculator (Mast, UK) and incubated at 35° C. for 18 hours. […] Table-5 provides the result of combination MIC results.

The next test concerns E. coli NCTC 13353. The test is described as above. The test is classed as cell-based. The note with it: Ceftazidime alone, Table 5. As for the experimental part: as §3
Another test concerns E. coli M 50. The description is as above. Format: cell-based. The note with it: Ceftazidime alone, Table 5. As to the method: as §3
For test [3], the system named is K. pneumoniae ATCC 700606. The description is as above. The test is classed as cell-based. To be noted: Ceftazidime alone, Table 5. As for the experimental part: as §3
Another test has as its system Citrobactor spp 58 MP. The test is described as above. The note with it: Ceftazidime alone, Table 5. The test is classed as cell-based. As for the experimental part: as §3
Test [4] concerns E. coli NCTC 13353 (CTX-M15, OXA-1). The test is described as follows: Agar dilution MIC (CLSI), compound alone. The test is classed as cell-based. The note with it: Escherichia coli. As to the method: as §1
In test [5] the test system is K. pneumoniae H521 (KPC, SHV, TEM). The test is described as follows: Agar dilution MIC (CLSI), compound alone. Format: cell-based. To be noted: Klebsiella pneumoniae. As to the method: as §1
The subject of test [6] is K. Pneomoniae S48 (NDM, SHV, TEM). The test is described as follows: Agar dilution MIC (CLSI), compound alone. The test is classed as cell-based, K. pneumoniae. To be noted: Klebsiella pneumoniae. As to the method: as §1
Test [7] deals with T1, Class D beta-lactamase OXA 23 (A baumannii NCTC 13301) (Acinetobacter baumannii, UniProt Q9L4P2).
T1 construct: preincubated mixture of crude enzyme and the compounds; endogenous in cells; host or cells: A. baumannii NCTC 13301 (crude enzyme preparation)
Put plainly: Beta-lactamase enzyme inhibition (Nitrocefin, crude enzyme). To be noted: A baumannii NCTC 13301 (OXA 23), Nitrocefin 100 μM. Format: biochemical. As to the method: as §2

The mark [8] stands for this setting: NCTC13353, E. coli NCTC 13353 (CTX-M15, OXA-1), compound alone, Table 2, read-out: MIC.
Setting [9] is: K. pneumoniae H521 (KPC, SHV, TEM), compound alone, Table 2, read-out: MIC.
The mark [10] stands for this setting: K. Pneomoniae S48 (NDM, SHV, TEM), compound alone, Table 2, read-out: MIC.

Values after ≈ are worked out from the molar mass of the structure shown. Like-named read-outs stand apart in the source and are kept apart here.

T1 sequence (Q9L4P2 18-273): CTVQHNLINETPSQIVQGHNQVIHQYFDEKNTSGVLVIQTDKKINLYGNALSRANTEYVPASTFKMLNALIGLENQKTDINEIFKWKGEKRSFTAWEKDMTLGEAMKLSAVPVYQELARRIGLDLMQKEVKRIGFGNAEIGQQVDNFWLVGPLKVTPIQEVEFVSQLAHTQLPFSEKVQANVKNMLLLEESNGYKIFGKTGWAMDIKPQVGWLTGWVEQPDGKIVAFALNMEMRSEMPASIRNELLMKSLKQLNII
Chain of Class A beta-lactamase SHV 18 (K. pneumoniae ATCC 700603) (P0AD64 22-286 limits assumed): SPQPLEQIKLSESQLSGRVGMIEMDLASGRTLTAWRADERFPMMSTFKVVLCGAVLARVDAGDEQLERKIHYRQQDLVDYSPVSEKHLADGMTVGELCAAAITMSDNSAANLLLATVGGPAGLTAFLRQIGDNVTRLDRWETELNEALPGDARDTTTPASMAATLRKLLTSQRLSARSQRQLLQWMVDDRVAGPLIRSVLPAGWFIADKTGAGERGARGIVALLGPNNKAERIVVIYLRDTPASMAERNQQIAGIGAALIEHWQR

As for `NC(=O)[C@@H]1CC[C@@H]2CN1C(=O)N2OS(=O)(=O)O` [Avibactam, avibactam, reference compound], in the test with K. pneumoniae B 77, the minimum inhibitory concentration (MIC) was 32 µg/mL (≈ 121 µM). For the same compound, the values for the concentration for half-maximal inhibition (IC50) in test [1] and in test [2] were 146 nM and 98 nM, respectively.
As to `CC(C)(O/N=C(\C(=O)N[C@@H]1C(=O)N2C(C(=O)[O-])=C(C[n+]3ccccc3)CS[C@H]12)c1csc(N)n1)C(=O)O` [Ceftazidime, ceftazidime, reference compound], the MIC of Ceftazidime alone in the test with K. pneumoniae H521 was above 32 µg/mL; in the test on E. coli NCTC 13353, 32 µg/mL; in the test with E. coli M 50, above 32 µg/mL; in [3], 32 µg/mL; in the test on Citrobactor spp 58 MP, 16 µg/mL.
The compound `O=C(O)[C@H]1/C(=C/CO)O[C@@H]2CC(=O)N21` [Clavulanic acid, clavulanic acid, reference compound] gave an IC50 in [1] above 10000 nM.
`O=C1N2C[C@@H](CC[C@H]2c2nnc(CC3CNC3)o2)N1OS(=O)(=O)O` [Example 1, (2S,5R)-Sulfuric acid mono-[2-(5-azetidin-3-ylmethyl-1,3,4-oxadiazol-2-yl)-7-oxo-1,6-diaza-bicyclo[3.2.1]oct-6-yl]ester]: the MIC in test [4] (setting [8]), in [5] (setting [9]) and in test [6] (setting [10]) was above 32 µg/mL throughout. Besides, the half-inhibitory concentration (IC50) was 402 nM in test [1], 27 nM in test [2] and 3950 nM in [7].
For the compound `O=C1N2C[C@@H](CC[C@H]2c2nnc(C[C@@H]3CCCN3)o2)N1OS(=O)(=O)O` [Example 2, (2S,5R)-sulfuric acid mono-[2-(5-(S)-pyrrolidin-2-ylmethyl-[1,3,4]-oxadiazol-2-yl)-7-oxo-1,6-diaza-bicyclo[3.2.1]oct-6-yl] ester], the MIC is above 32 µg/mL in test [4] (setting [8]), above 32 µg/mL in test [5] (setting [9]) and 32 µg/mL (≈ 85.7 µM) in test [6] (setting [10]). In addition, the half-maximal inhibitory concentration (IC50) in test [2] was determined as 27 nM; in [7], 12900 nM.
Regarding `O=C1N2C[C@@H](CC[C@H]2c2nnc(CC3CCNCC3)o2)N1OS(=O)(=O)O` [Example 3, (2S,5R)-sulfuric acid mono-[2-(5-piperidin-4-ylmethyl-[1,3,4]-oxadiazol-2-yl)-7-oxo-1,6-diaza-bicyclo[3.2.1]oct-6-yl] ester], the MIC in [4] (NCTC13353), in test [5] and in test [6] was above 32 µg/mL in each case. Moreover, the half-maximal inhibitory concentration (IC50) in test [1] is 20 nM; in test [2] it was 39 nM; in test [7], 5720 nM.
As for `O=C1N2C[C@@H](CC[C@H]2c2nnc(CC3CNCCN3)o2)N1OS(=O)(=O)O` (stereo partly drawn) [Example 4, (2S,5R)-sulfuric acid mono[2-(5-(RS)-piperazin-2-ylmethyl-[1,3,4]-oxadiazol-2-yl)-7-oxo-1,6-diaza-bicyclo[3.2.1]oct-6-yl] ester], the minimal inhibitory concentration (MIC) was above 32 µg/mL in test [4] (NCTC13353, 18 h, E. coli NCTC 13353 (CTX-M15, OXA-1), compound alone, Table 2, read-out: MIC); above 32 µg/mL in test [5] (18 h, K. pneumoniae H521 (KPC, SHV, TEM), compound alone, Table 2, read-out: MIC); above 32 µg/mL in test [6] (18 h, K. Pneomoniae S48 (NDM, SHV, TEM), compound alone, Table 2, read-out: MIC). The 50% inhibitory concentration (IC50) in test [2] came out at 27 nM; in test [7], 410 nM.
With `O=C1N2C[C@@H](CC[C@H]2c2nnc(CCCc3ccccc3)o2)N1OS(=O)(=O)O` [Example 7, (2S,5R)-sulfuric acid mono-{2-[5-(3-phenyl-propyl)-[1,3,4]-oxadiazol-2-yl]-7-oxo-1,6-diaza-bicyclo[3.2.1]oct-6-yl} ester], the MIC in test [4] (setting [8]) was above 32 µg/mL; in test [5] (setting [9]) it was above 32 µg/mL; in test [6] (setting [10]), 32 µg/mL (≈ 78.3 µM). For the same compound, the half-maximal inhibitory concentration (IC50) in test [1] is 4 nM; in test [2] it was 40 nM; in test [7] it was 115 nM.
For the compound `O=C1N2C[C@@H](CC[C@H]2c2nnc(C(c3ccccc3)c3ccccc3)o2)N1OS(=O)(=O)O` [Example 8, (2S,5R)-sulfuric acid mono-[2-(5-benzhydryl-[1,3,4]-oxadiazol-2-yl)-7-oxo-1,6-diaza-bicyclo[3.2.1]oct-6-yl] ester], the minimal inhibitory concentration (MIC) in [4] (setting [8]), in test [5] (setting [9]) and in [6] (setting [10]) was above 32 µg/mL each time. Besides, the figures for the 50% inhibitory concentration (IC50) in [1], in test [2] and in [7] were 17 nM, 37 nM and 8 nM, respectively.
In the case of `O=C1N2C[C@@H](CC[C@H]2c2nnc(CC(c3ccccc3)c3ccccc3)o2)N1OS(=O)(=O)O` [Example 9, (2S,5R)-sulfuric acid mono-{2-[5-(2,2-diphenyl-ethyl)-[1,3,4]-oxadiazol-2-yl]-7-oxo-1,6-diaza-bicyclo[3.2.1]oct-6-yl} ester], the MIC in test [4] (setting [8]), in [5] (setting [9]) and in test [6] (setting [10]) was above 32 µg/mL in each case. The IC50 turned out to be 4 nM in test [2] and 240 nM in test [7].
Regarding `O=C1N2C[C@@H](CC[C@H]2c2nnc(Cc3ccc(Cl)cc3)o2)N1OS(=O)(=O)O` [Example 10, (2S,5R)-sulfuric acid mono-{2-[5-(4-chloro-benzyl)-[1,3,4]-oxadiazol-2-yl]-7-oxo-1,6-diaza-bicyclo[3.2.1]oct-6-yl} ester], the minimum inhibitory concentration (MIC) in [4] (NCTC13353), in test [5] and in [6] was above 32 µg/mL throughout. Also, the 50% inhibitory concentration (IC50) in test [1] was 10 nM; in [7], 108 nM.
For the compound `Nc1ccc(Cc2nnc([C@@H]3CC[C@@H]4CN3C(=O)N4OS(=O)(=O)O)o2)cc1` [Example 11, (2S,5R)-sulfuric acid mono-{2-[5-(4-amino-benzyl)-[1,3,4]-oxadiazol-2-yl]-7-oxo-1,6-diaza-bicyclo[3.2.1]oct-6-yl} ester], the MIC is above 32 µg/mL in [4] (NCTC13353), above 32 µg/mL in test [5] and 32 µg/mL (≈ 80.9 µM) in test [6]. Also, the results for the concentration for half-maximal inhibition (IC50) in [1] and in test [7] were 13 nM and 108 nM, respectively.
On to `CN(C)c1ccc(Cc2nnc([C@@H]3CC[C@@H]4CN3C(=O)N4OS(=O)(=O)O)o2)cc1` [Example 12, (2S,5R)-sulfuric acid mono-{2-[5-(4-dimethylamino-benzyl)-[1,3,4]-oxadiazol-2-yl]-7-oxo-1,6-diaza-bicyclo[3.2.1]oct-6-yl} ester], for which the MIC in [4] (setting [8]), in [5] (setting [9]) and in [6] (setting [10]) was above 32 µg/mL each time. The values for the IC50 in [1], in test [2] and in test [7] were 6 nM, 10 nM and 97 nM, respectively.
As for `O=C1N2C[C@@H](CC[C@H]2c2nnc(Cc3ccc(O)cc3)o2)N1OS(=O)(=O)O` [Example 13, (2S,5R)-sulfuric acid mono-{2-[5-(4-hydroxy-benzyl)-[1,3,4]-oxadiazol-2-yl]-7-oxo-1,6-diaza-bicyclo[3.2.1]oct-6-yl} ester], the minimum inhibitory concentration (MIC) in test [4] (NCTC13353), in test [5] and in [6] was above 32 µg/mL each time. Further, the IC50 in test [1] amounted to 0.1 nM; in [2], 13 nM; in test [7] it was 39 nM.
With `COc1ccc(Cc2nnc([C@@H]3CC[C@@H]4CN3C(=O)N4OS(=O)(=O)O)o2)cc1` [Example 14, (2S,5R)-sulfuric acid mono-{2-[5-(4-methoxy-benzyl)-[1,3,4]-oxadiazol-2-yl]-7-oxo-1,6-diaza-bicyclo[3.2.1]oct-6-yl} ester], the MIC in [4] (setting [8]), in test [5] (setting [9]) and in [6] (setting [10]) was above 32 µg/mL in each case. For the same compound, the IC50 came to 13 nM in test [1] and 80 nM in test [7].

Source of the values: patent US9845323B2, “2-(1,3,4-oxadiazol-2-yl)-7-oxo-1,6-diazabicyclo[3.2.1 ]octane derivatives and their use as antibacterial agents” (WOCKHARDT LIMITED, priority 2014, dated 2017).
